The target in one test is Bcr/Abl fusion protein (Homo sapiens, UniProt P00519). In words: Inhibition of Bcr/Abl by FRET-based Z-lyte assay. It counts as protein assay.
Chain of Bcr/Abl fusion protein (P00519 whole entry, the tested form may be a part): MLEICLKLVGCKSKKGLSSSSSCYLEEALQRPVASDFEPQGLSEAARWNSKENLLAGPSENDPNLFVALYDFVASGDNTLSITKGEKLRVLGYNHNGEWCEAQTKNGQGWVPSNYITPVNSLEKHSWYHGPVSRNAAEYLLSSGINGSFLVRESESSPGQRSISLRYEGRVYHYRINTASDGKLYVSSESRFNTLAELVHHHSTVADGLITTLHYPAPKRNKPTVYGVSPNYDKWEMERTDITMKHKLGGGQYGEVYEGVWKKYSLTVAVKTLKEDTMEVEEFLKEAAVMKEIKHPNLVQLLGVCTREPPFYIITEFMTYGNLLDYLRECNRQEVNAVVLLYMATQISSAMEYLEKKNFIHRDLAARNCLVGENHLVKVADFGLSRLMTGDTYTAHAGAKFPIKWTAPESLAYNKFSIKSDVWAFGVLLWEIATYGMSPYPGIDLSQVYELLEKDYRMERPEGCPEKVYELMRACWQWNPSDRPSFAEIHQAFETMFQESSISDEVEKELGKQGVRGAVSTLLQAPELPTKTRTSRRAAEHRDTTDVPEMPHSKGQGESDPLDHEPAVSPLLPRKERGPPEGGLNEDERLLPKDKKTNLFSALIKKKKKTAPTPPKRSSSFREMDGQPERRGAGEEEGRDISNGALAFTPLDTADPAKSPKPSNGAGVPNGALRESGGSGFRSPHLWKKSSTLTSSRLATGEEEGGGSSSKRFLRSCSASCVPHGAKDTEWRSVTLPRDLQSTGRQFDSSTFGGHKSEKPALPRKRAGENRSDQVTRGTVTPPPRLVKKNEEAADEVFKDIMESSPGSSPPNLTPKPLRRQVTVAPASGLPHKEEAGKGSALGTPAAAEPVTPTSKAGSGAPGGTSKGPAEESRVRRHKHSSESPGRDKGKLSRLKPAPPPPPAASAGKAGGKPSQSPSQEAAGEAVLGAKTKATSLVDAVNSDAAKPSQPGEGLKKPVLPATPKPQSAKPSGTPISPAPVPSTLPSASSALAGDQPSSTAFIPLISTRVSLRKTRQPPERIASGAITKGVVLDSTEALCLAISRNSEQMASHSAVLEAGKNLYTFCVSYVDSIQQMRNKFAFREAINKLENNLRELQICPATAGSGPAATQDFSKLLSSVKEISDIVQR
Chain of Bcr/Abl fusion protein (P11274 whole entry, further chain, the tested form may be a part): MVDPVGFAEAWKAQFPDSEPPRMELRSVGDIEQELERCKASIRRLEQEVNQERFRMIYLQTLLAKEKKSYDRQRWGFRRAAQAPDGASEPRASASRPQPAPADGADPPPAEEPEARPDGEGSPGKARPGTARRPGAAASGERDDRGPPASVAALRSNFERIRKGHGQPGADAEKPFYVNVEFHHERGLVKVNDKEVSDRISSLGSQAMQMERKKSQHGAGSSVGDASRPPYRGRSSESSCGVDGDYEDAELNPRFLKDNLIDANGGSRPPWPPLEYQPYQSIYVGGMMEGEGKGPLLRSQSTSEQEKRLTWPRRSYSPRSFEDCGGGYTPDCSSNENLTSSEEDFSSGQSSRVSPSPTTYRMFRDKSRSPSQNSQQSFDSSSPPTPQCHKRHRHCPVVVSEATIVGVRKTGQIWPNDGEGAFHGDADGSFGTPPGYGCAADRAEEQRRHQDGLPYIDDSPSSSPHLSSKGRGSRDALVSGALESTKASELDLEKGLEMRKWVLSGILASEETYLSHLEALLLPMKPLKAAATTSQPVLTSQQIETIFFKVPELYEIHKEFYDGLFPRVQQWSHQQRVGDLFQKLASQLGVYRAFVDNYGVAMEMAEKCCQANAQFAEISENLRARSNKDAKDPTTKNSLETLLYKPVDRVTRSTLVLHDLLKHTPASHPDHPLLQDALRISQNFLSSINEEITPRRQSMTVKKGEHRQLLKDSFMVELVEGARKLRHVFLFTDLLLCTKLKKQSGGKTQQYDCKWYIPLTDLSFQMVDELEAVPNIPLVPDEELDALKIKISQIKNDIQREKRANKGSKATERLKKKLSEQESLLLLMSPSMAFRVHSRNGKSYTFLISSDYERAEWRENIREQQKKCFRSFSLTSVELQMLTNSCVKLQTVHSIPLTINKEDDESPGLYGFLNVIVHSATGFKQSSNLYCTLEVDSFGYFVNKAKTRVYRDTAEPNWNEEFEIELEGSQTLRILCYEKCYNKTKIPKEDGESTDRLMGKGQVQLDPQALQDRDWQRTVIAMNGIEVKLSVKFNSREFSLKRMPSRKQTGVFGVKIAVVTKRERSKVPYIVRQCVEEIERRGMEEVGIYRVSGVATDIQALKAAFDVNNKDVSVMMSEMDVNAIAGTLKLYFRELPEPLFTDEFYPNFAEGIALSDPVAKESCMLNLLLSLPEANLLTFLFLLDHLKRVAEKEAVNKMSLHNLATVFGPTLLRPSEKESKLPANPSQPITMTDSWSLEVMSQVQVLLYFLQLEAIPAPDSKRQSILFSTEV
As for `Cc1ccc(C(=O)Nc2cccc(C(F)(F)F)c2)cc1Nc1nc(-c2cccnc2)cs1`, the IC50 was above 10000 nM.
Turning to `Cc1ncn(-c2cc(NC(=O)c3ccc(C)c(Nc4nc(-c5cccnc5)cs4)c3)cc(C(F)(F)F)c2)n1`, the IC50 is 480 nM.
With `Cc1cc(NC(=O)c2ccc(C)c(Nc3nc(-c4cccnc4)cs3)c2)cc(-n2cnc(C)c2)c1`, the IC50 came out at 774 nM.
Take `Cc1ccc(C(=O)Nc2cc(-n3ccnc3)cc(C(F)(F)F)c2)cc1Nc1nc(-c2cccnc2)cs1`: the IC50 amounted to 507 nM. Compared with the last compound, the IC50 is about 1.5-fold lower.
Same read-out and setting: in the case of `Cc1cn(-c2cc(Cl)cc(NC(=O)c3ccc(C)c(Nc4nc(-c5cccnc5)cs4)c3)c2)cn1` it was 1300 nM.
As for `CCc1ccc(C(=O)Nc2cc(-n3cnc(C)c3)cc(C(F)(F)F)c2)cc1Nc1nc(-c2cccnc2)cs1`, inhibition was half-maximal at 5510 nM (IC50).
`Cc1cn(-c2cc(NC(=O)c3ccc(C)c(Nc4nc(-c5cccnc5)cs4)c3)cc(C(F)(F)F)c2)cn1` displayed an IC50 of 671 nM. Compared with the last compound, the IC50 is about 8.2-fold lower.

For another test, the system named is K562. Briefly: Antiproliferative activity against human K562 cells. It counts as functional, cell-based.
In the case of `Cc1ccc(C(=O)Nc2cccc(C(F)(F)F)c2)cc1Nc1nc(-c2cccnc2)cs1`, the IC50 is 3000 nM.
Turning to `Cc1ncn(-c2cc(NC(=O)c3ccc(C)c(Nc4nc(-c5cccnc5)cs4)c3)cc(C(F)(F)F)c2)n1`, the midpoint of inhibition, the IC50, lay at 26 nM.
In the case of `Cc1cc(NC(=O)c2ccc(C)c(Nc3nc(-c4cccnc4)cs3)c2)cc(-n2cnc(C)c2)c1`, the IC50 is 449 nM. Against the preceding compound, the IC50 is about 17-fold higher.
For `Cc1ccc(C(=O)Nc2cc(-n3ccnc3)cc(C(F)(F)F)c2)cc1Nc1nc(-c2cccnc2)cs1`, the IC50 worked out at 28 nM.
Compound `Cc1cn(-c2cc(Cl)cc(NC(=O)c3ccc(C)c(Nc4nc(-c5cccnc5)cs4)c3)c2)cn1` gave an IC50 of 812 nM.
On the same count and under the same terms, in the case of `CCc1ccc(C(=O)Nc2cc(-n3cnc(C)c3)cc(C(F)(F)F)c2)cc1Nc1nc(-c2cccnc2)cs1` it was 1600 nM.
`Cc1cn(-c2cc(NC(=O)c3ccc(C)c(Nc4nc(-c5cccnc5)cs4)c3)cc(C(F)(F)F)c2)cn1` gave an IC50 of 28 nM. This IC50 lies about 57-fold lower than the previous one.

Test system in another test: not listed separately
Briefly: Antiproliferative activity against human KU812 cells. The class given is functional, cell-based.
`Cc1ccc(C(=O)Nc2cccc(C(F)(F)F)c2)cc1Nc1nc(-c2cccnc2)cs1` displayed an IC50 of 1240 nM.
In turn, `Cc1ncn(-c2cc(NC(=O)c3ccc(C)c(Nc4nc(-c5cccnc5)cs4)c3)cc(C(F)(F)F)c2)n1` yielded an IC50 of 38 nM.
Still for that read-out and setting: with `Cc1cc(NC(=O)c2ccc(C)c(Nc3nc(-c4cccnc4)cs3)c2)cc(-n2cnc(C)c2)c1` the figure was 871 nM.
Take `Cc1ccc(C(=O)Nc2cc(-n3ccnc3)cc(C(F)(F)F)c2)cc1Nc1nc(-c2cccnc2)cs1`: the IC50 was 36 nM.
For `Cc1cn(-c2cc(Cl)cc(NC(=O)c3ccc(C)c(Nc4nc(-c5cccnc5)cs4)c3)c2)cn1`, half-maximal inhibition (IC50) was put at 518 nM.
Same read-out and setting: with `CCc1ccc(C(=O)Nc2cc(-n3cnc(C)c3)cc(C(F)(F)F)c2)cc1Nc1nc(-c2cccnc2)cs1` the figure was 945 nM; with `Cc1cn(-c2cc(NC(=O)c3ccc(C)c(Nc4nc(-c5cccnc5)cs4)c3)cc(C(F)(F)F)c2)cn1`, 30 nM.

The next test relates to K562. Briefly: Antiproliferative activity against human imatinib-resistant K562 cells. It counts as functional, cell-based.
As to `Cc1ccc(C(=O)Nc2cccc(C(F)(F)F)c2)cc1Nc1nc(-c2cccnc2)cs1`, the midpoint of inhibition, the IC50, lay at 1440 nM.
For the compound `Cc1ncn(-c2cc(NC(=O)c3ccc(C)c(Nc4nc(-c5cccnc5)cs4)c3)cc(C(F)(F)F)c2)n1`, the IC50 is 1630 nM.
For the compound `Cc1cc(NC(=O)c2ccc(C)c(Nc3nc(-c4cccnc4)cs3)c2)cc(-n2cnc(C)c2)c1`, half-maximal inhibition (IC50) required 3290 nM.
Regarding `Cc1ccc(C(=O)Nc2cc(-n3ccnc3)cc(C(F)(F)F)c2)cc1Nc1nc(-c2cccnc2)cs1`, it took 2140 nM to reach half-maximal inhibition (IC50).
For `Cc1cn(-c2cc(Cl)cc(NC(=O)c3ccc(C)c(Nc4nc(-c5cccnc5)cs4)c3)c2)cn1`, the IC50 amounted to 2360 nM.
For the compound `CCc1ccc(C(=O)Nc2cc(-n3cnc(C)c3)cc(C(F)(F)F)c2)cc1Nc1nc(-c2cccnc2)cs1`, the IC50 was found to be 2720 nM.
As for `Cc1cn(-c2cc(NC(=O)c3ccc(C)c(Nc4nc(-c5cccnc5)cs4)c3)cc(C(F)(F)F)c2)cn1`, the IC50 came out at 1830 nM. The IC50 values of the last two compounds are within 1.5-fold of each other.

What is called IC50 is the concentration that gives 50% inhibition. Higher therefore signals weaker potency.

The values are drawn from ChEMBL document CHEMBL1759982, “Hybrid compounds as new Bcr/Abl inhibitors” (Bioorg Med Chem Lett, 2011).
